{"source": "ChEMBL document CHEMBL1909046", "about": "“DrugMatrix in vitro pharmacology data”", "key": {"[1]": {"target": "T1, Alpha-2C adrenergic receptor (Homo sapiens, UniProt P18825)", "T1 sequence (P18825 whole entry)": "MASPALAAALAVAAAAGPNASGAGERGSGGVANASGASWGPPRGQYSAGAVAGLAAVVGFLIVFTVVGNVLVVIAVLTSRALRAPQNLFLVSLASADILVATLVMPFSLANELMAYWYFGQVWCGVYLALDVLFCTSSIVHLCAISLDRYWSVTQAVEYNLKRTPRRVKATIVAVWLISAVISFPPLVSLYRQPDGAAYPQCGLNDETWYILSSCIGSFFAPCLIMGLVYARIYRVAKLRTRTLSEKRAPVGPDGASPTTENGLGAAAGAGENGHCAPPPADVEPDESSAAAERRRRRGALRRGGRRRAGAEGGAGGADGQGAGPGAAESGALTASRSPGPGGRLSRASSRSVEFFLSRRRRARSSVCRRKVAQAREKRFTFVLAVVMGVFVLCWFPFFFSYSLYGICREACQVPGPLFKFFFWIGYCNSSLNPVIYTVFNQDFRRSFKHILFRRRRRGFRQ", "assay": "DRUGMATRIX: Adrenergic Alpha-2C radioligand binding (ligand: [3H] MK-912)", "assay_type": "cell membranes, Sf9, Membrane"}, "D(1A) dopamine receptor": {"target": "D(1A) dopamine receptor (Homo sapiens, UniProt P21728)", "sequence (P21728 whole entry)": "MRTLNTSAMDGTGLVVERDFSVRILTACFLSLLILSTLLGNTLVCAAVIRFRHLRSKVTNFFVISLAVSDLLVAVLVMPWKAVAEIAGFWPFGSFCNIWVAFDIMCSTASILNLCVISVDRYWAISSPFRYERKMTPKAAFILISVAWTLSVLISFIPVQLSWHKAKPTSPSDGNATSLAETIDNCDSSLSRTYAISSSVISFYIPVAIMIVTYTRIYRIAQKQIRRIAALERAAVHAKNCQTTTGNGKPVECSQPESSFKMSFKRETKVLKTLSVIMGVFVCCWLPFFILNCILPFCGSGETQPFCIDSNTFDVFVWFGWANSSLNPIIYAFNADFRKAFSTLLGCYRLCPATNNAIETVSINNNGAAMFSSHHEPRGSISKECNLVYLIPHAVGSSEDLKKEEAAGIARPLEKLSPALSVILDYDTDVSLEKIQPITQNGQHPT", "assay": "DRUGMATRIX: Dopamine D1 radioligand binding (ligand: [3H] SCH-23390)", "assay_type": "cell membranes, CHO, Membrane", "details": "cho; Not Active = under 50% inhibition at 10 µM"}, "Mu-type opioid receptor": {"target": "Mu-type opioid receptor (Homo sapiens, UniProt P35372)", "sequence (P35372 whole entry)": "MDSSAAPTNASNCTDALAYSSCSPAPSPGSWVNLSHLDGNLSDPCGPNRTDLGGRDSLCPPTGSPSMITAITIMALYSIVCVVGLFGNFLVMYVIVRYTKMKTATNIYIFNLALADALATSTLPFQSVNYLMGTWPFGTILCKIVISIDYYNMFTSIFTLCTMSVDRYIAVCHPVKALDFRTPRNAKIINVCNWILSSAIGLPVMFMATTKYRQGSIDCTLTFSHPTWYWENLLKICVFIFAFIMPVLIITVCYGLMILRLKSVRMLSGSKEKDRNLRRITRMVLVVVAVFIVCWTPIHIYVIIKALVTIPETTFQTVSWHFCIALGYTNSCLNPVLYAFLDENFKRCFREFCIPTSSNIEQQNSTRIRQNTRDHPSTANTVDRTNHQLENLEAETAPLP", "assay": "DRUGMATRIX: Opiate mu (OP3, MOP) radioligand binding (ligand: [3H] Diprenorphine)", "assay_type": "cell membranes, CHO-K1, Membrane", "details": "cho-k1; Not Active = under 50% inhibition at 10 µM"}, "D(3) dopamine receptor": {"target": "D(3) dopamine receptor (Homo sapiens, UniProt P35462)", "sequence (P35462 whole entry)": "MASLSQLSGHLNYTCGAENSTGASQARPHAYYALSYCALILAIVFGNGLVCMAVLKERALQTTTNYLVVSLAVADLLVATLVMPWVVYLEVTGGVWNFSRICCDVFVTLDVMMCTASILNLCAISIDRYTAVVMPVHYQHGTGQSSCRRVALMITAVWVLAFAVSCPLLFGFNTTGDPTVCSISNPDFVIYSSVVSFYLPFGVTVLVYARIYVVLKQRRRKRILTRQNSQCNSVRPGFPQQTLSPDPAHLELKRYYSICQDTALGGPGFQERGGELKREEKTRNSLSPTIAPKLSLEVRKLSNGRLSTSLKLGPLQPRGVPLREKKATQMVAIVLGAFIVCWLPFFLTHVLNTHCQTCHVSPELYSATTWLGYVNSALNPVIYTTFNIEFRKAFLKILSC", "assay": "DRUGMATRIX: Dopamine D3 radioligand binding (ligand: [3H] Spiperone)", "assay_type": "cell membranes, CHO, Membrane"}, "[2]": {"target": "T2, Muscarinic acetylcholine receptor M5 (Homo sapiens, UniProt P08912)", "T2 sequence (P08912 whole entry)": "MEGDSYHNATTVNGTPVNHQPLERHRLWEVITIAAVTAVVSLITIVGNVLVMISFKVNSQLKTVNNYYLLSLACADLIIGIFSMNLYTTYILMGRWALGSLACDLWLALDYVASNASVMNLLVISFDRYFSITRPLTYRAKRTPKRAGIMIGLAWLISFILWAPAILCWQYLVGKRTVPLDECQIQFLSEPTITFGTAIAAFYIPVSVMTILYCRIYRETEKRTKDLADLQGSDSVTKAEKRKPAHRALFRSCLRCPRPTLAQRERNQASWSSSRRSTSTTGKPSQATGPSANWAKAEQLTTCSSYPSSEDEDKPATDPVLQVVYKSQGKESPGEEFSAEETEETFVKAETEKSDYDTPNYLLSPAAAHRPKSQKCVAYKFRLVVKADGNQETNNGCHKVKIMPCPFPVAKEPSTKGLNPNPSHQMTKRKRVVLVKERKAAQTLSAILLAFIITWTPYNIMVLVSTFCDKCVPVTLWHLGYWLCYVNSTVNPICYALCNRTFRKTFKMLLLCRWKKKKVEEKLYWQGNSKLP", "assay_type": "cell membranes, CHO-K1, Membrane", "details": "cho-k1"}, "Cytochrome P450 2C9": {"target": "Cytochrome P450 2C9 (Homo sapiens, UniProt P11712)", "sequence (P11712 whole entry)": "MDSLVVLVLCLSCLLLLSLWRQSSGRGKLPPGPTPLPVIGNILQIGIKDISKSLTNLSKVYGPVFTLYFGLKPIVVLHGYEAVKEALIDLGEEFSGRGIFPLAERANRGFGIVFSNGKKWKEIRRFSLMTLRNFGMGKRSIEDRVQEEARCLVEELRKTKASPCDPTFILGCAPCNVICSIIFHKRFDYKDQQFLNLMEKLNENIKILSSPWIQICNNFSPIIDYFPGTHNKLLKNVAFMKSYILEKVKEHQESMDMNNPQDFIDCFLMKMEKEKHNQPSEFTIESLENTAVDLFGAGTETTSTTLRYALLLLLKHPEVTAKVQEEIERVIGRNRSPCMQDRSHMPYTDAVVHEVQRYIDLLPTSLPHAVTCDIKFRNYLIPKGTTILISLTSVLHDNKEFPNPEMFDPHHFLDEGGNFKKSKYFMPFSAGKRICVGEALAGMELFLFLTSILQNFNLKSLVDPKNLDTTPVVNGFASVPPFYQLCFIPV", "details": "bti-tn-5b1-4"}}, "data": [{"smiles": "O=C(Oc1ccccc1C(=O)O)c1ccccc1O", "note": "[SALSALATE]", "values": [{"measurement": "IC50", "setting": "[1]; sf9", "result": "Not Active"}, {"measurement": "IC50", "setting": "D(1A) dopamine receptor", "result": "Not Active"}, {"measurement": "IC50", "setting": "Mu-type opioid receptor", "result": "Not Active"}, {"measurement": "IC50", "setting": "D(3) dopamine receptor; cho", "result": "Not Active"}, {"measurement": "IC50", "setting": "[2]", "result": "Not Active"}, {"measurement": "IC50", "setting": "Cytochrome P450 2C9", "result": "Not Active"}, {"measurement": "Ki", "setting": "Cytochrome P450 2C9", "result": "Not Active"}]}, {"smiles": "O=C(O)c1cn(-c2ccc(F)cc2)c2cc(N3CCNCC3)c(F)cc2c1=O", "note": "[SARAFLOXACIN]", "values": [{"measurement": "IC50", "setting": "[1]; sf9", "result": "Not Active"}, {"measurement": "IC50", "setting": "D(1A) dopamine receptor", "result": "Not Active"}, {"measurement": "IC50", "setting": "Mu-type opioid receptor", "result": "Not Active"}, {"measurement": "IC50", "setting": "D(3) dopamine receptor; cho", "result": "Not Active"}, {"measurement": "IC50", "setting": "[2]", "result": "Not Active"}, {"measurement": "IC50", "setting": "Cytochrome P450 2C9", "result": "Not Active"}, {"measurement": "Ki", "setting": "Cytochrome P450 2C9", "result": "Not Active"}]}, {"smiles": "CC(C)NCC(O)c1ccc(NS(C)(=O)=O)cc1", "note": "(centres undefined) [SOTALOL]", "values": [{"measurement": "IC50", "setting": "[1]; sf9", "result": "Not Active"}, {"measurement": "IC50", "setting": "D(1A) dopamine receptor", "result": "Not Active"}, {"measurement": "IC50", "setting": "Mu-type opioid receptor", "result": "Not Active"}, {"measurement": "IC50", "setting": "D(3) dopamine receptor; cho", "result": "Not Active"}, {"measurement": "IC50", "setting": "[2]", "result": "Not Active"}, {"measurement": "IC50", "setting": "Cytochrome P450 2C9", "result": "Not Active"}, {"measurement": "Ki", "setting": "Cytochrome P450 2C9", "result": "Not Active"}]}, {"smiles": "O.O.O.O.O.O.[Cl-].[Cl-].[Sr+2]", "note": "[STRONTIUM CHLORIDE HEXAHYDRATE]", "values": [{"measurement": "IC50", "setting": "[1]; sf9", "result": "Not Active"}, {"measurement": "IC50", "setting": "D(1A) dopamine receptor", "result": "Not Active"}, {"measurement": "IC50", "setting": "Mu-type opioid receptor", "result": "Not Active"}, {"measurement": "IC50", "setting": "D(3) dopamine receptor; cho", "result": "Not Active"}, {"measurement": "IC50", "setting": "[2]", "result": "Not Active"}, {"measurement": "IC50", "setting": "Cytochrome P450 2C9", "result": "Not Active"}, {"measurement": "Ki", "setting": "Cytochrome P450 2C9", "result": "Not Active"}]}, {"smiles": "O=C1C(CC[S+]([O-])c2ccccc2)C(=O)N(c2ccccc2)N1c1ccccc1", "note": "(centres undefined) [SULFINPYRAZONE]", "values": [{"measurement": "IC50", "setting": "[1]; sf9", "result": "Not Active"}, {"measurement": "IC50", "setting": "D(1A) dopamine receptor", "result": "Not Active"}, {"measurement": "IC50", "setting": "Mu-type opioid receptor", "result": "Not Active"}, {"measurement": "IC50", "setting": "D(3) dopamine receptor; cho", "result": "Not Active"}, {"measurement": "IC50", "setting": "[2]", "result": "Not Active"}, {"measurement": "IC50", "setting": "Cytochrome P450 2C9", "result": "Not Active"}, {"measurement": "Ki", "setting": "Cytochrome P450 2C9", "result": "Not Active"}]}, {"smiles": "CN(C/C=C/C#CC(C)(C)C)Cc1cccc2ccccc12", "note": "[TERBINAFINE]", "values": [{"measurement": "IC50", "setting": "[1]; sf9", "result": "Not Active"}, {"measurement": "IC50", "setting": "D(1A) dopamine receptor", "result": "Not Active"}, {"measurement": "IC50", "setting": "Mu-type opioid receptor", "result": "Not Active"}, {"measurement": "IC50", "setting": "D(3) dopamine receptor; cho", "result": "Not Active"}, {"measurement": "IC50", "setting": "[2]", "result": "Not Active"}, {"measurement": "IC50", "setting": "Cytochrome P450 2C9", "result": "Not Active"}, {"measurement": "Ki", "setting": "Cytochrome P450 2C9", "result": "Not Active"}]}, {"smiles": "CS(=O)(=O)c1ccc([C@@H](O)[C@@H](CO)NC(=O)C(Cl)Cl)cc1", "note": "[THIAMPHENICOL]", "values": [{"measurement": "IC50", "setting": "[1]; sf9", "result": "Not Active"}, {"measurement": "IC50", "setting": "D(1A) dopamine receptor", "result": "Not Active"}, {"measurement": "IC50", "setting": "Mu-type opioid receptor", "result": "Not Active"}, {"measurement": "IC50", "setting": "D(3) dopamine receptor; cho", "result": "Not Active"}, {"measurement": "IC50", "setting": "[2]", "result": "Not Active"}, {"measurement": "IC50", "setting": "Cytochrome P450 2C9", "result": "Not Active"}, {"measurement": "Ki", "setting": "Cytochrome P450 2C9", "result": "Not Active"}]}, {"smiles": "CCN(CC)CCNC(=O)c1cc(S(C)(=O)=O)ccc1OC", "note": "[TIAPRIDE]", "values": [{"measurement": "IC50", "setting": "[1]; sf9", "result": "Not Active"}, {"measurement": "IC50", "setting": "D(1A) dopamine receptor", "result": "Not Active"}, {"measurement": "IC50", "setting": "Mu-type opioid receptor", "result": "Not Active"}, {"measurement": "IC50", "setting": "D(3) dopamine receptor; read-out: IC50", "result": 1150, "unit": "nM"}, {"measurement": "Ki", "setting": "D(3) dopamine receptor; read-out: Ki", "result": 390, "unit": "nM"}, {"measurement": "IC50", "setting": "[2]", "result": "Not Active"}, {"measurement": "IC50", "setting": "Cytochrome P450 2C9", "result": "Not Active"}, {"measurement": "Ki", "setting": "Cytochrome P450 2C9", "result": "Not Active"}]}, {"smiles": "Clc1ccccc1CN1CCc2sccc2C1", "note": "[TICLOPIDINE]", "values": [{"measurement": "IC50", "setting": "[1]; read-out: IC50", "result": 1170, "unit": "nM"}, {"measurement": "Ki", "setting": "[1]; read-out: Ki", "result": 171, "unit": "nM"}, {"measurement": "IC50", "setting": "D(1A) dopamine receptor", "result": "Not Active"}, {"measurement": "IC50", "setting": "Mu-type opioid receptor", "result": "Not Active"}, {"measurement": "IC50", "setting": "D(3) dopamine receptor; cho", "result": "Not Active"}, {"measurement": "IC50", "setting": "[2]", "result": "Not Active"}, {"measurement": "IC50", "setting": "Cytochrome P450 2C9", "result": "Not Active"}, {"measurement": "Ki", "setting": "Cytochrome P450 2C9", "result": "Not Active"}]}, {"smiles": "NC1CCN(c2nc3c(cc2F)c(=O)c(C(=O)O)cn3-c2ccc(F)cc2F)C1", "note": "(centres undefined) [TOSUFLOXACIN]", "values": [{"measurement": "IC50", "setting": "[1]; sf9", "result": "Not Active"}, {"measurement": "IC50", "setting": "D(1A) dopamine receptor", "result": "Not Active"}, {"measurement": "IC50", "setting": "Mu-type opioid receptor", "result": "Not Active"}, {"measurement": "IC50", "setting": "D(3) dopamine receptor; cho", "result": "Not Active"}, {"measurement": "IC50", "setting": "[2]", "result": "Not Active"}, {"measurement": "IC50", "setting": "Cytochrome P450 2C9", "result": "Not Active"}, {"measurement": "Ki", "setting": "Cytochrome P450 2C9", "result": "Not Active"}]}, {"smiles": "CC(c1cc2ccccc2s1)N(O)C(N)=O", "note": "(centres undefined) [ZILEUTON]", "values": [{"measurement": "IC50", "setting": "[1]; sf9", "result": "Not Active"}, {"measurement": "IC50", "setting": "D(1A) dopamine receptor", "result": "Not Active"}, {"measurement": "IC50", "setting": "Mu-type opioid receptor", "result": "Not Active"}, {"measurement": "IC50", "setting": "D(3) dopamine receptor; cho", "result": "Not Active"}, {"measurement": "IC50", "setting": "[2]", "result": "Not Active"}, {"measurement": "IC50", "setting": "Cytochrome P450 2C9", "result": "Not Active"}, {"measurement": "Ki", "setting": "Cytochrome P450 2C9", "result": "Not Active"}]}]}
